In data set [1] the target is H1N1 NA (A/PuertoRico/8/1934) (Influenza A virus, UniProt P03468). In words: biochemical.
In data set [2] the test system is A/Wisconsin/67/05 (H3N2). Put plainly: microbe, parasite or virus in culture. The following applies: read-out: EC50 towards influenza virus H3N2. Format: cell-based.
Data set [3] in a line: in vitro. The following applies: chicken.
Data set [4] has as its system A/Goose/Jiangsu/1306/2014 (H5N8). Put plainly: microbe, parasite or virus in culture. Format: cell-based. The following applies: read-out: EC50 towards influenza virus H5N8.
Data set [5] in a line: in vitro. The settings on record: dog.
For data set [6], the system named is A/PR/8/34 (H1N1). Put plainly: microbe, parasite or virus in culture. The format is cell-based. The settings on record: read-out: EC50 towards influenza virus H1N1.
Data set [7] has as its system A/Goose/Guangdong/SH7/2013 (H5N1). Put plainly: microbe, parasite or virus in culture. The format is cell-based. The following applies: read-out: EC50 towards influenza virus H5N1.
In data set [8] the test system is N1, H5N1. The settings on record: cited from earlier work.

Where two headings read alike, the source gives them in different places. A value given as a limit tells only on which side of the number the result lay.

The values below come from publication PMC9571049 (Molecules, 2022).

Sequence of H1N1 NA (A/PuertoRico/8/1934) (P03468 whole entry, looked up): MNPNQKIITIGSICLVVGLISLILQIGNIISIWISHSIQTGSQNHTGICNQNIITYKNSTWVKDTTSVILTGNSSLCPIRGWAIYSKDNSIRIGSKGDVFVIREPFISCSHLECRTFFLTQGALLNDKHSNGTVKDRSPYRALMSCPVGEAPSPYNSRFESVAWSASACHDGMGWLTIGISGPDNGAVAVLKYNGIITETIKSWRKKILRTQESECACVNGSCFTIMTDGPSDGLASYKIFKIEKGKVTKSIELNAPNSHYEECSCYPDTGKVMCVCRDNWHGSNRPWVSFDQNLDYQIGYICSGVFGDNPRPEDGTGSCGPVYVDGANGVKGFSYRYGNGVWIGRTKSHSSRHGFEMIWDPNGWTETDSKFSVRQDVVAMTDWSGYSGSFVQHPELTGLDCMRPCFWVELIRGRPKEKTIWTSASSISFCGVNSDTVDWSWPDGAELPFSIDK

In general, IC50 refers to the midpoint of a concentration-inhibition curve. The term melting point denotes the temperature, or range, at which the solid turns liquid. With `CCC(CC)O[C@@H]1C=C(C(=O)O)C[C@H](NCc2ccc(OCc3ccccc3B(O)O)cc2)[C@H]1NC(C)=O` [Compound 1c, (3R,4R,5S)-4-acetamido-5-((4-((2-boronobenzyl)oxy)benzyl)amino)-3-(pentan-3-yloxy)cyclohex-1-ene-1-carboxylic acid], the melting point is 146.3 to 150.5 °C (dec.). In data set [1], this compound yielded an IC50 of 690 ± 130 nM.
As usually defined, the EC50 is the midpoint of the concentration-response curve. With `CCC(CC)O[C@@H]1C=C(C(=O)O)C[C@H](NCc2ccc(OCc3ccc(B(O)O)cc3)cc2)[C@H]1NC(C)=O` [Compound 3c, (3R,4R,5S)-4-acetamido-5-((4-((4-boronobenzyl)oxy)benzyl)amino)-3-(pentan-3-yloxy)cyclohex-1-ene-1-carboxylic acid], the melting point is 168.3 to 172.1 °C (dec.). Further, the EC50 in data set [2] (Influenza A virus, H3N2, MDCK) was found to be 3080 ± 590 nM. For the same compound, the CC50 in data set [3] stood at 289000 ± 15800 nM. Also, the EC50 in data set [4] (Influenza A virus, H5N8, CEF) stood at 2510 ± 230 nM. The CC50 in data set [5] was over 250000 nM. Further, in data set [1], half-maximal inhibition (IC50) was put at 45 ± 6.7 nM. In addition, the EC50 in [6] (Influenza A virus, MDCK) is 20 ± 10 nM. In addition, the half-maximal effective concentration (EC50) in data set [7] (Influenza A virus, H5N1, CEF) is 3200 ± 440 nM.
Compound `CCC(CC)O[C@@H]1C=C(C(=O)O)C[C@H](NCc2ccc(OCc3ccccc3C(=O)O)cc2)[C@H]1NC(C)=O` [Compound 4c, 2-((4-((((1S,5R,6R)-6-acetamido-3-carboxy-5-(pentan-3-yloxy)cyclohex-3-en-1-yl)amino)methyl)phenoxy)methyl)benzoic acid] yielded a melting point of 177.1 to 178.9 °C. In addition, in data set [1], the IC50 was 15000 ± 880 nM.
Turning to `CCC(CC)O[C@@H]1C=C(C(=O)O)C[C@H](NCc2ccc(OCc3cccc(C(=O)O)c3)cc2)[C@H]1NC(C)=O` [Compound 5c, 3-((4-((((1S,5R,6R)-6-acetamido-3-carboxy-5-(pentan-3-yloxy)cyclohex-3-en-1-yl)amino)methyl)phenoxy)methyl)benzoic acid], the IC50 in [1] came to 390 ± 40 nM.
As for `CCC(CC)O[C@@H]1C=C(C(=O)O)C[C@H](NCc2ccc(OCc3ccc(C(=O)O)cc3)cc2)[C@H]1NC(C)=O` [Compound 6c, 4-((4-((((1S,5R,6R)-6-acetamido-3-carboxy-5-(pentan-3-yloxy)cyclohex-3-en-1-yl)amino)methyl)phenoxy)methyl)benzoic acid], the melting point was 193.3 to 195.5 °C (dec.). In [1], this compound displayed an IC50 of 600 ± 130 nM.
For `CCC(CC)O[C@@H]1C=C(C(=O)O)C[C@H](NCc2ccc(OCc3cc(C(=O)O)ccc3OC)cc2)[C@H]1NC(C)=O` [Compound 7c, 3-((4-((((1S,5R,6R)-6-acetamido-3-carboxy-5-(pentan-3-yloxy)cyclohex-3-en-1-yl)amino)methyl)phenoxy)methyl)-4-methoxybenzoic acid], in [1], 14000 ± 930 nM corresponded to half-maximal inhibition (IC50).
Consider `CCC(CC)O[C@@H]1C=C(C(=O)O)C[C@H](NCc2ccc(OCc3ccc(C(=O)O)cc3Cl)cc2)[C@H]1NC(C)=O` [Compound 8c, 4-((4-((((1S,5R,6R)-6-acetamido-3-carboxy-5-(pentan-3-yloxy)cyclohex-3-en-1-yl)amino)methyl)phenoxy)methyl)-3-chlorobenzoic acid], for which the melting point was 189.3 to 192.1 °C (dec.). Moreover, the IC50 in [1] is 250 ± 31 nM.
With `CCC(CC)O[C@@H]1C=C(C(=O)O)C[C@H](NCc2ccc(OCc3ccc(C(=O)O)cc3OC)cc2)[C@H]1NC(C)=O` [Compound 9c, 4-((4-((((1S,5R,6R)-6-acetamido-3-carboxy-5-(pentan-3-yloxy)cyclohex-3-en-1-yl)amino)methyl)phenoxy)methyl)-3-methoxybenzoic acid], the melting point is 171.2 to 175.7 °C (dec.). The compound also displayed an IC50 in data set [1] of 3210 ± 380 nM.
The like results for `CCC(CC)O[C@@H]1C=C(C(=O)O)C[C@H](NCc2ccc(OCc3ccc(C(=O)O)c(OC)c3)cc2)[C@H]1NC(C)=O` [Compound 10c, 4-((4-((((1S,5R,6R)-6-acetamido-3-carboxy-5-(pentan-3-yloxy)cyclohex-3-en-1-yl)amino)methyl)phenoxy)methyl)-2-methoxybenzoic acid] were, in that order, 190.5 to 195.1 °C (dec.) and 3590 ± 25 nM.
For `CCC(CC)O[C@@H]1C=C(C(=O)O)C[C@H](NCc2ccc(OCc3ccccc3[N+](=O)[O-])cc2)[C@H]1NC(C)=O` [Compound 11c, (3R,4R,5S)-4-acetamido-5-((4-((2-nitrobenzyl)oxy)benzyl)amino)-3-(pentan-3-yloxy)cyclohex-1-ene-1-carboxylic acid], the melting point is 150.8 to 152.7 °C. Moreover, the IC50 in data set [1] worked out at 1160 ± 110 nM.
The compound `CCC(CC)O[C@@H]1C=C(C(=O)O)C[C@H](NCc2ccc(OCc3cccc([N+](=O)[O-])c3)cc2)[C@H]1NC(C)=O` [Compound 12c, (3R,4R,5S)-4-acetamido-5-((4-((3-nitrobenzyl)oxy)benzyl)amino)-3-(pentan-3-yloxy)cyclohex-1-ene-1-carboxylic acid] displayed an IC50 in data set [1] of 170 ± 6.8 nM.
`CCC(CC)O[C@@H]1C=C(C(=O)O)C[C@H](NCc2ccc(OCc3ccc([N+](=O)[O-])cc3)cc2)[C@H]1NC(C)=O` [Compound 13c, (3R,4R,5S)-4-acetamido-5-((4-((4-nitrobenzyl)oxy)benzyl)amino)-3-(pentan-3-yloxy)cyclohex-1-ene-1-carboxylic acid]: the melting point was 184.1 to 187.5 °C (dec.). This compound also gave an IC50 in data set [1] of 500 ± 63 nM.
As to `CCC(CC)O[C@@H]1C=C(C(=O)O)C[C@H](NCc2ccc(OCc3cccc(C(N)=O)c3)cc2)[C@H]1NC(C)=O` [Compound 14c, (3R,4R,5S)-4-acetamido-5-((4-((3-carbamoylbenzyl)oxy)benzyl)amino)-3-(pentan-3-yloxy)cyclohex-1-ene-1-carboxylic acid], the EC50 in [2] (Influenza A virus, H3N2, MDCK) was over 100000 nM; in data set [4] (Influenza A virus, H5N8, CEF), 2800 ± 460 nM; in [6] (Influenza A virus, MDCK), 210 ± 20 nM; in data set [7] (Influenza A virus, H5N1, CEF), 1180 ± 170 nM. Further, the CC50 in data set [3] is 291000 ± 17900 nM; in [5], over 250000 nM. Further, 11 ± 1.3 nM corresponded to half-maximal inhibition in [1] (IC50).
As for `CCC(CC)O[C@@H]1C=C(C(=O)O)C[C@H](NCc2ccc(OCc3ccc(C(N)=O)cc3)cc2)[C@H]1NC(C)=O` [Compound 15c, (3R,4R,5S)-4-acetamido-5-((4-((4-carbamoylbenzyl)oxy)benzyl)amino)-3-(pentan-3-yloxy)cyclohex-1-ene-1-carboxylic acid], half-maximal inhibition in data set [1] (IC50) was put at 1730 ± 290 nM.
For the compound `CCC(CC)O[C@@H]1C=C(C(=O)O)C[C@H](NCc2ccc(OCc3cccc(S(N)(=O)=O)c3)cc2)[C@H]1NC(C)=O` [Compound 16c, (3R,4R,5S)-4-acetamido-3-(pentan-3-yloxy)-5-((4-((3-sulfamoylbenzyl)oxy)benzyl)amino)cyclohex-1-ene-1-carboxylic acid], the melting point was 193.2 to 198.1 °C (dec.). This compound also displayed a half-maximal inhibitory concentration (IC50) in [1] of 900 ± 130 nM.
Take `CCC(CC)O[C@@H]1C=C(C(=O)O)C[C@H](NCc2ccc(OCc3ccc(S(N)(=O)=O)cc3)cc2)[C@H]1NC(C)=O` [Compound 17c, (3R,4R,5S)-4-acetamido-3-(pentan-3-yloxy)-5-((4-((4-sulfamoylbenzyl)oxy)benzyl)amino)cyclohex-1-ene-1-carboxylic acid]: the half-inhibitory concentration (IC50) in data set [1] stood at 27 ± 4.8 nM.
`CCC(CC)O[C@@H]1C=C(C(=O)O)C[C@H](NCc2ccc(OCc3ccc(S(=O)(=O)O)cc3)cc2)[C@H]1NC(C)=O` [Compound 18c, (3R,4R,5S)-4-acetamido-3-(pentan-3-yloxy)-5-((4-((4-sulfobenzyl)oxy)benzyl)amino)cyclohex-1-ene-1-carboxylic acid]: the melting point was 244.5 to 248.7 °C (dec.). This compound also came in with an IC50 in data set [1] of 1640 ± 120 nM.
In the case of `CCC(CC)OC1C=C(C(=O)O)CC(NCc2ccc(-c3ccccc3)cc2)C1NC(C)=O` (stereo not drawn) [JMC20I], in data set [8], the IC50 was 1.9 nM.
Regarding `CCC(CC)OC1C=C(C(=O)O)CC(NCc2ccc(Sc3cccs3)cc2)C1NC(C)=O` (stereo not drawn) [JMC21g], in data set [8], the IC50 is 3.83 nM.
Regarding `CCC(CC)OC1C=C(C(=O)O)CC(NCc2ccc(Sc3ccccc3)cc2)C1NC(C)=O` (stereo not drawn) [JMC21h], the IC50 in data set [8] is 0.96 nM.
Turning to `CCC(CC)O[C@@H]1C=C(C(=O)O)C[C@H](NCc2ccc3sc4ccccc4c3c2)[C@H]1NC(C)=O` [JMC23d], in [8], the IC50 is 0.27 nM.
For the compound `CCC(CC)OC1C=C(C(=O)O)CC(NCc2ccc(-c3cccs3)cc2)C1NC(C)=O` (stereo not drawn) [JMC32], in [8], the IC50 is 2.1 nM.
Turning to `CCC(CC)O[C@@H]1C=C(C(=O)O)C[C@H](N)[C@H]1NC(C)=O` [OSC, oseltamivir carboxylate, reference compound], the EC50 was 360 ± 160 nM in data set [2], 2010 ± 61 nM in data set [4], […] in data set [6] and 760 ± 66 nM in data set [7]. Further, the CC50 was 201000 ± 4050 nM in data set [3] and over 250000 nM in data set [5].
Consider `CC(=O)N[C@H]1[C@H]([C@H](O)[C@H](O)CO)OC(C(=O)O)=C[C@@H]1N=C(N)N` [Zanamivir (ZAN), zanamivir, reference compound], for which the EC50 in [2] (Influenza A virus, H3N2, MDCK) amounted to 270 ± 30 nM; in [6] (Influenza A virus, MDCK), […]. The compound further registered a CC50 in [5] of over 250000 nM.
